Laboratory results from ChEMBL document CHEMBL1201862, “PubChem BioAssay data set” (2004).
“And” between values parts separate entries of the source, which are not always exact repeats. Identical values can stand only once.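 Test compounds were applied to cells in 96-well plates for 48 hours at 5 doses. The concentration for 50% growth inhibition is given as GI50.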 The source made the active and inactive calls. No stated cut-off is given here; in the data, active = GI50 up to about 1.1 µM and inactive = higher.

Experiments:
Assay in all cases: growth of human tumour cells (NCI), 48 h
HOP-62 = tested on: HOP-62
SF-539 = tested on: SF-539
EKVX = tested on: EKVX
CCRF-CEM = tested on: CCRF-CEM
CAKI-1 = tested on: CAKI-1
NCI-H522 = tested on: NCI-H522
HCC 2998 = tested on: HCC 2998
HL-60 = tested on: HL-60
HCT-116 = tested on: HCT-116
SK-MEL-5 = tested on: SK-MEL-5
SNB-19 = tested on: SNB-19
LXFL 529 = tested on: LXFL 529
Malme-3M = tested on: Malme-3M
OVCAR-3 = tested on: OVCAR-3
MCF7 = tested on: MCF7
NCI/ADR-RES = tested on: NCI/ADR-RES
MDA-MB-435 = tested on: MDA-MB-435
T47D = tested on: T47D
Hs-578T = tested on: Hs-578T
MDA-MB-231 = tested on: MDA-MB-231

SMILES	GI50 (HOP-62)	GI50 (SF-539)	GI50 (EKVX)	GI50 (CCRF-CEM)	GI50 (CAKI-1)	GI50 (NCI-H522)	GI50 (HCC 2998)	GI50 (HL-60)	GI50 (HCT-116)	GI50 (SK-MEL-5)	GI50 (SNB-19)	GI50 (LXFL 529)	GI50 (Malme-3M)	GI50 (OVCAR-3)	GI50 (MCF7)	GI50 (NCI/ADR-RES)	GI50 (MDA-MB-435)	GI50 (T47D)	GI50 (Hs-578T)	GI50 (MDA-MB-231)
C=CCCn1nc(-c2ccccc2)oc1=O	> 100 µM (inactive)	> 100 µM (inactive)	> 100 µM (inactive)	> 100 µM (inactive)	> 100 µM (inactive)	> 100 µM (inactive)	> 100 µM (inactive)	> 100 µM (inactive)	> 100 µM (inactive)	> 100 µM (inactive)	> 100 µM (inactive)	> 100 µM (inactive)	> 100 µM (inactive)	> 100 µM (inactive)						
CN(c1ccccc1)c1c(Cl)c(=O)oc2c1ccc1occc12		> 100 µM (inactive)	33.3 µM (inactive)	64.7 µM (inactive)	53.3 µM (inactive)	> 100 µM (inactive)	> 100 µM (inactive)	15.6 µM (inactive)	81.8 µM (inactive)	> 100 µM (inactive)	59.7 µM (inactive)	> 100 µM (inactive)	> 100 µM (inactive)	> 100 µM (inactive)						
Cc1nc2c(nc1C)C(=O)C1=C(C2=O)C2C=CC1CC2	22.3 µM (inactive)	13.8 µM (inactive)	7 µM (inactive)	1.1 µM (active)	18.3 µM (inactive)	4.35 µM (inactive)	29.4 µM (inactive)	1.44 µM (inactive)	1.54 µM (inactive)	2.05 µM (inactive)	32.6 µM (inactive)	1.75 µM (inactive)	11.8 µM (inactive)	5.83 µM (inactive)						
Cc1cn2c(=O)c3ccccc3nc2s1	> 100 µM (inactive)	88.7 µM (inactive)	> 100 µM (inactive)	> 100 µM (inactive)	> 100 µM (inactive)	> 100 µM (inactive)	> 100 µM (inactive)	> 100 µM (inactive)	> 100 µM (inactive)	> 100 µM (inactive)	> 100 µM (inactive)	> 100 µM (inactive)	> 100 µM (inactive)	> 100 µM (inactive)						
O=C(CCC(=O)N/N=C/c1ccccc1O)N/N=C/c1ccccc1O		> 10 µM (inactive)	20.9 µM (inactive)		> 100 µM (inactive)	53.2 µM (inactive)	> 100 µM (inactive)		80.7 µM (inactive)	> 100 µM (inactive)	56.6 µM (inactive)	> 100 µM (inactive)	> 100 µM (inactive)	42.1 µM (inactive)						
Nc1ccc(C2=N/C(=C\c3cccc(N)c3)C(=O)O2)cc1		> 100 µM (inactive)	> 100 µM (inactive)	67.3 µM (inactive)	> 100 µM (inactive)	> 100 µM (inactive)	> 100 µM (inactive)	57.5 µM (inactive)		> 100 µM (inactive)	> 100 µM (inactive)	> 100 µM (inactive)	> 100 µM (inactive)	> 100 µM (inactive)						
N#C/C(=C\c1ccc(O)cc1)C(N)=O	> 100 µM (inactive)	> 100 µM (inactive)	> 50.7 µM (inactive)	> 100 µM (inactive)	> 100 µM (inactive)		> 100 µM (inactive)	> 100 µM (inactive) and 57.7 µM (inactive)	> 100 µM (inactive)	> 100 µM (inactive)	> 100 µM (inactive)	> 100 µM (inactive)	> 100 µM (inactive)	> 100 µM (inactive)	> 100 µM (inactive)	> 100 µM (inactive)				
CN(C)CCNC(=O)c1cccc2cc3c(Cl)cccc3nc12	0.718 µM (active)	0.873 µM (active)	2.35 µM (inactive)		3.63 µM (inactive)	2.86 µM (inactive)	1.27 µM (inactive)		0.601 µM (active)	1.71 µM (inactive)	1.71 µM (inactive)	1.67 µM (inactive)	0.865 µM (active)	1.82 µM (inactive)						
CN/N=C(/Cc1occc(=O)c1O)C(=O)Nc1ccccc1C	> 100 µM (inactive)	> 100 µM (inactive)	> 100 µM (inactive)	> 100 µM (inactive)	> 100 µM (inactive)	> 100 µM (inactive)	> 100 µM (inactive)	> 100 µM (inactive)	> 100 µM (inactive)	> 100 µM (inactive)	> 100 µM (inactive)	> 100 µM (inactive)	> 100 µM (inactive)	> 100 µM (inactive)						
O=[N+]([O-])c1ccccc1S(=O)(=O)c1ccccc1[N+](=O)[O-]	34.9 µM (inactive)	54.8 µM (inactive)	> 56.2 µM (inactive)	> 100 µM (inactive)	> 100 µM (inactive)	> 67.6 µM (inactive)	> 100 µM (inactive)	> 100 µM (inactive)	> 100 µM (inactive)	> 56.2 µM (inactive)	56.8 µM (inactive)	> 100 µM (inactive)	> 100 µM (inactive)	> 100 µM (inactive)	> 100 µM (inactive)	> 100 µM (inactive)	> 100 µM (inactive)	> 100 µM (inactive)	32.4 µM (inactive)	> 60.7 µM (inactive)
NC(=S)N/N=C(\CCC(=O)Nc1ccccc1[N+](=O)[O-])CC(=O)c1ccco1	> 100 µM (inactive)	> 100 µM (inactive)	> 100 µM (inactive)	> 100 µM (inactive)	> 100 µM (inactive)	> 100 µM (inactive)	> 100 µM (inactive)	> 100 µM (inactive)	> 100 µM (inactive)	> 100 µM (inactive)	> 100 µM (inactive)	> 100 µM (inactive)	> 100 µM (inactive)	> 100 µM (inactive)						
COC(=O)C(=O)C(C#N)c1nc2ccccc2s1 (configuration not stated)	> 100 µM (inactive)	98.9 µM (inactive)	> 100 µM (inactive)	75.2 µM (inactive)	> 100 µM (inactive)	> 100 µM (inactive)	> 100 µM (inactive)	92.9 µM (inactive)	97.1 µM (inactive)	> 100 µM (inactive)	> 100 µM (inactive)	> 100 µM (inactive)	> 100 µM (inactive)	> 100 µM (inactive)						
CCOC(=O)c1cn(CC)c2cc3c(cc2c1=O)SCS3	> 100 µM (inactive)	> 100 µM (inactive)	> 100 µM (inactive)	> 100 µM (inactive)	> 100 µM (inactive)	> 100 µM (inactive)	> 100 µM (inactive)	> 100 µM (inactive)		> 100 µM (inactive)	> 100 µM (inactive)	> 100 µM (inactive)	> 100 µM (inactive)	> 100 µM (inactive)						
COc1ccccc1C(O)(c1ccccc1)C(O)(c1ccccc1)c1ccccc1OC (configuration not stated)	> 100 µM (inactive)	> 100 µM (inactive)	> 100 µM (inactive)	> 100 µM (inactive)		> 100 µM (inactive)	> 100 µM (inactive)	9.82 µM (inactive)	> 100 µM (inactive)	> 100 µM (inactive)	> 100 µM (inactive)	> 100 µM (inactive)	> 100 µM (inactive)	> 100 µM (inactive)						
CC1CN1c1c(C(=O)/C=C/c2ccc(Cl)cc2)c(-c2ccccc2)nn(C)c1=O (configuration not stated)	2.82 µM (inactive)	1.94 µM (inactive)	3.63 µM (inactive)	2.24 µM (inactive)	4.74 µM (inactive)	2.18 µM (inactive)	1.99 µM (inactive)	2.23 µM (inactive)	2.52 µM (inactive)		9.71 µM (inactive)	2.13 µM (inactive)	8.97 µM (inactive)	2.6 µM (inactive)						
CCCc1cc(-c2ccc(-c3cc(CCC)c(C=O)[nH]3)s2)[nH]c1C=O	> 100 µM (inactive)	> 100 µM (inactive)	> 100 µM (inactive)	2.44 µM (inactive)	> 100 µM (inactive)	5.45 µM (inactive)	5.56 µM (inactive)	4.3 µM (inactive)	21.8 µM (inactive)	29.4 µM (inactive)	> 100 µM (inactive)	76.4 µM (inactive)	21.2 µM (inactive)	12.4 µM (inactive)	64.3 µM (inactive)	18.4 µM (inactive)	15.5 µM (inactive)	6.05 µM (inactive)	41.2 µM (inactive)	> 100 µM (inactive)
CCOC(=O)N1Cc2ccoc2C1	> 100 µM (inactive)	> 100 µM (inactive)	> 100 µM (inactive)	> 100 µM (inactive)		> 100 µM (inactive)	> 100 µM (inactive)	> 100 µM (inactive)	> 100 µM (inactive)	> 100 µM (inactive)	> 100 µM (inactive)	> 100 µM (inactive)	> 100 µM (inactive)	> 100 µM (inactive)						
O=C(CC(=O)C1=CNc2ccccc2S1)C(=O)Nc1ccc(Cl)cc1	> 50 µM (inactive)	> 50 µM (inactive)	> 50 µM (inactive)	> 50 µM (inactive)	> 50 µM (inactive)	> 50 µM (inactive)	> 50 µM (inactive)	> 34 µM (inactive)	> 50 µM (inactive)	> 50 µM (inactive)	> 50 µM (inactive)	> 50 µM (inactive)	> 50 µM (inactive)	> 50 µM (inactive)						
c1ccc([P+](c2ccccc2)(c2ccccc2)C2Sc3ccccc3S2)cc1	23.1 µM (inactive)	18.3 µM (inactive)	22.9 µM (inactive)	13.8 µM (inactive)	14.6 µM (inactive)	14.9 µM (inactive)	15.7 µM (inactive)	5.96 µM (inactive)	12.8 µM (inactive)	17.7 µM (inactive)	27.7 µM (inactive)	12.6 µM (inactive)	13.9 µM (inactive)	14.5 µM (inactive)						
